Measured values: patent publication US20200247761A1, “SULFONAMIDE OR AMIDE COMPOUNDS, COMPOSITIONS AND METHODS FOR THE PROPHYLAXIS AND/OR TREATMENT OF AUTOIMMUNE, INFLAMMATION OR INFECTION RELATED DISORDERS” (TAIWANJ PHARMACEUTICALS CO., LTD, priority 2017, published 2020)
Read-outs that look alike come from different tables or passages of the source.

Key:
Format in all cases: cell-based
[1] = molecular target: T1, Toll-like receptor 4 (TLR4) (Homo sapiens, UniProt O00206); assay: TLR4 activity: NF-κB-inducible SEAP reporter in LPS-stimulated TLR4-expressing HEK293 cells; settings: for inhibition at 10 µM: Test Con. 10 μM; for activity towards TLR-4 (in words): summary of Table 1 (10, 20 or 100 μM)
T1 construct: expressed in transfected cells; host or cells: HEK293 cells engineered to express TLR4
Protocol: Stimulation of the Toll-like receptor 4 (TLR4) was determined by assessing activation of the transcription factor NF-κB in HEK293 cells that were engineered to express TLR4. Assessment of TLR4 stimulation was based on the use of an NE-κB-inducible secreted alkaline phosphatase (SEAP) reporter system in which the SEAP reporter was under the control of a promoter inducible by NF-κB. Thus, the degree of activation of TLR4 can be indirectly quantified spectrophotometrically by measuring the amount of the SEAP reporter that is produced.
The TLR4-expressing cells were plated in HEK-Blue Detection (Invivogen, San Diego, Calif.) medium in a 96-well plate (25,000-50,000 cells/well). The cells were stimulated with lipopolysaccharides (LPS) alone or in combination with the compound of Example 1. Cell culture without LPS and the compound of Example 1 was defined as baseline control. To test whether the compound of Example 1 could block that activation of the TLR4, the cells were treated with the designated compound (10, 20 or 100 μM) and LPS (final conc. 10 ng/ml/well). After an incubation period (16-24 hours) at 37° C. in a CO2 incubator, the signals of individual samples in 96-well plates were detected at O.D.650 nm with a Molecular Devices SpectraMax i3 Imaging Cytometer. The TLR4 activity was expressed in percentage of LPS alone-stimulated cells minus baseline control.

[2] = tested on: HEK293 cells; assay: Cell viability (MTT) of the TLR4-expressing HEK293 cells; settings: percentage of viable LPS-stimulated cells
Protocol: (§1) RAW264.7 cells (1.6×10^5 cells/well) or HEK 293 cells (2.5-5.0×10^4 cells/well) were seeded in 96-well plate overnight and treated with different compounds for 16-24 hours. Cells' growth were determined by MTT-based colorimetric assays. Viability of the test cells treated with vehicle (0.5% DMSO) only was defined as 100% viable. Survival of cells after treatment with DETDs was calculated using the following formula: viable cell number (%)=OD570 (treated cell culture)/OD570 (vehicle control)×100.
(§2) The cell viability assay was performed by the MTT method. Cells were incubated with 45 μl of 5 mg/ml MTT for 1 hour at 37° C., and 150 μl of DMSO was added at the end of culture to dissolve the crystals. The signals of individual samples in 96-well plates were detected at O.D.570 nm with a Molecular Devices SpectraMax i3 Imaging Cytometer. Cell viability was expressed in percentage of viable LPS-stimulated cells.

[3] = tested on: mTNF-α secretion from LPS-stimulated RAW264.7 monocytes; assay: LPS induced mTNF-α release from RAW264.7 cells (ELISA); settings: Mus musculus
Protocol: To confirm whether the inhibitory effect of the selected compounds of example 2.1 (i.e., Compounds 12, 15, 19, 20, 22, 24, 28, 30, 32, 34, 36, 38, 40, 42, 44, 45, 49, 50, 52 and 70) translates to anti-inflammation, they were further tested to see if any of them may suppress mTNF-α secretion from lipopolysaccharide (LPS)-stimulated RAW264.7 monocytes.
To this purpose, RAW264.7 cells were seeded at 1.6×10^5 cells/well into 96-well culture plates. Test compounds (i.e., Compounds 12, 15, 19, 20, 22, 24, 28, 30, 32, 34, 36, 38, 40, 42, 44, 45, 49, 50, 52 and 70, respectively at 10 μM) were added into the culture plates in triplicate and co-cultured at 37° C. in 5% CO2 for 30 minutes. LPS (final conc. 10 ng/ml/well) was then added into the culture plates and the cells were incubated for another 4 hours. At the end of culture, the cultured media were harvested for mTNF-α quantification by ELISA with commercial assay kits (R&D Systems, Minneapolis, Minn.) following the manufacturer's protocol. Signals of the individual samples in 96-well plates were detected at O.D.450 nm/570 nm with a Molecular Devices SpectraMax i3 Imaging Cytometer. The mTNF-α activity was expressed in percentage of viable LPS-stimulated cells without test compound treatment.

[4] = tested on: RAW264.7 cells; assay: Cell viability (MTT) of RAW264.7 cells; settings: for Cell Viability (%) mean: Test Con. 10 μM, MTT, RAW264.7 cells, percentage of viable LPS-stimulated cells; for toxic activity toward RAW264.7 cells (in words): Table 2, 10 μM
Protocol: as §1
as §2, with “method, in which cells” for “method. Cells”

[5] = LPS 10 ng/ml, 16-24 hours, HEK293 cells expressing TLR4, read-out: TLR-4 inhibition (%) mean
[6] = RAW264.7, Table 2, 10 μM, read-out: inhibition of LPS induced mTNF-α release from RAW264.7 cells
[7] = Test Con. 10 μM, LPS 10 ng/ml, 4 hours, RAW264.7 cells, read-out: mTNF-α inhibition (%) mean

T1 sequence (O00206 24-839, species assumed): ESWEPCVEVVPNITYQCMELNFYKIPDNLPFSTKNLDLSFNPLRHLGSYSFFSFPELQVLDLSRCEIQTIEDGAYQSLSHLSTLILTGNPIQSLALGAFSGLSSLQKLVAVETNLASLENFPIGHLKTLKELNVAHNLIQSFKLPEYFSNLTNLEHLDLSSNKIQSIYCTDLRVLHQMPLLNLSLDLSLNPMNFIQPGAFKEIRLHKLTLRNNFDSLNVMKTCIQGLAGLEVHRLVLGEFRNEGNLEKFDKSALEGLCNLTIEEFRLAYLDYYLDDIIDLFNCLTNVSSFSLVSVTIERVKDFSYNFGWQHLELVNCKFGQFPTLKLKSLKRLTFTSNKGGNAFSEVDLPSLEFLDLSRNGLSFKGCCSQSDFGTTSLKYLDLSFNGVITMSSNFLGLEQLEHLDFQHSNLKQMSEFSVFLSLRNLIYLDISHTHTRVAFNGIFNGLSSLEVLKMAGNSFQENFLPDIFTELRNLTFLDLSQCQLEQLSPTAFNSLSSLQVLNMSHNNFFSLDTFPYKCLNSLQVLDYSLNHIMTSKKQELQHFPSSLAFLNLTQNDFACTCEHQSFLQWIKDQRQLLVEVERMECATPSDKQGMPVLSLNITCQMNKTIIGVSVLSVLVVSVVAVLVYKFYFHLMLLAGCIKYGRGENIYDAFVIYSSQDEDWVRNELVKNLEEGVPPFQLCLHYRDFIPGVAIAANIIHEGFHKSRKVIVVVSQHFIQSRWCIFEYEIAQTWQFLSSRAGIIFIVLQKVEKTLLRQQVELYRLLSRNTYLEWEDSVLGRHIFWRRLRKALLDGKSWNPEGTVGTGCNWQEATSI
T1 sequence (Q9Y6Y9 17-160 partner limits assumed, species assumed): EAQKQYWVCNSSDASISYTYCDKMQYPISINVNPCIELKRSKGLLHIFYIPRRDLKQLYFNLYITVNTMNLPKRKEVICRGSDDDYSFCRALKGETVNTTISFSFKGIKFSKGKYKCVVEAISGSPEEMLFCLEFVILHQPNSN

Compound	inhibition at 10 µM [1, 5] [%]	activity towards TLR-4 (in words) [1]	Cell Viability (%) mean ([2]; Test Con. 10 μM) [%]	inhibition at 10 µM [3, 6] [%]	inhibition at 10 µM [3, 7] [%]	Cell Viability (%) mean [4] [%]	toxic activity toward RAW264.7 cells (in words) [4]	inhibition at 100 µM ([1]; Test Con. 100 μM, LPS 10 ng/ml, 16-24 hours, HEK293 cells expressing TLR4, read-out: TLR-4 inhibition (%) mean) [%]	inhibition at 20 µM ([1]; Test Con. 20 μM, LPS 10 ng/ml, 16-24 hours, HEK293 cells expressing TLR4, read-out: TLR-4 inhibition (%) mean) [%]	Cell Viability (%) mean ([2]; Test Con. 20 μM) [%]
C=CC(=O)N(c1ccc(F)cc1Cl)S(=O)(=O)c1c(C)oc(C)c1C(=O)OC [Compound 42]	100	strong antagonist	72.4	85 to 100	98.6	27.8	–	–	–	–
C=CC(=O)Nc1ccccc1S(=O)(=O)Nc1ccc(F)cc1Cl [Compound 44]	100	strong antagonist	81.4	85 to 100	94.1	96.1	negligible to no toxic activity	–	–	–
C=CC(=O)N(c1ccc(F)cc1Cl)S(=O)(=O)N1CCOC1=O [Compound 38]	100	strong antagonist	61.6	85 to 100	97.1	48.0	–	–	–	–
C=CC(=O)N(c1ccc(F)cc1Cl)S(=O)(=O)c1ccc(F)cc1Cl [Compound 30]	94.8	strong antagonist	94.0	85 to 100	82.9	99.7	negligible to no toxic activity	–	–	–
C=CC(=O)N(c1ccc(F)cc1Cl)S(=O)(=O)c1ccccc1C(=O)OC [Compound 24]	100	strong antagonist	88.5	85 to 100	96	54.5	–	–	–	–
C=CC(=O)N1CCCC[C@H]1C(=O)N(C)c1ccc(F)cc1Cl [Compound 57]	17.5	mild or negligible activity	95.9	–	–	–	–	–	–	–
C=CC(=O)N1CCCc2cccc(S(=O)(=O)Nc3ccc(F)cc3Cl)c21 [Compound 12]	98.9	strong antagonist	72	85 to 100	100	25.5	–	–	–	–
COC(=O)C1=CCN(CC(=O)Nc2ccc(F)cc2)CC1 [Compound 3]	–	mild or negligible activity	–	–	–	–	–	6.8	–	–
C/C=C/C(=O)N1CCCc2cccc(S(=O)(=O)Nc3ccc(F)cc3Cl)c21 [Compound 13]	–	mild or negligible activity	–	–	–	–	–	–	10.9	86.6
C=CC(=O)N1CCC[C@@H]1C(=O)Nc1ccc(F)cc1Cl [Compound 65]	15.8	mild or negligible activity	100.5	–	–	–	–	–	–	–
C=CC(=O)N1CCC[C@H]1C(=O)Nc1ccc(F)cc1Cl [Compound 61]	3.7	mild or negligible activity	93.4	–	–	–	–	–	–	–
